Test results from article PMC10545747, “Development of cyclopeptide inhibitors of cGAS targeting protein-DNA interaction and phase separation” (Nature Communications, 2023).
“And” between values parts separate entries of the source, which are not always exact repeats. Equal entries are not always repeated. Square brackets hold non-standard residues; d marks the D form. Peptide text beside a SMILES is read from it.

What was measured:
in vitro = conditions: mouse, Cell viability (Fig. S2e)
Procedure: (§1) Cell viability was measured by cell counting kit-8 (TargetMol) according to the manufacturer’s instructions. […]
(§2) (e-g) THP1 cells (e), L929 cells (f) and RAW264.7 cells (g) were exposed to the indicated doses of XQ2 for 48h, the cell viability was measured by CCK8 assay. Data are representative of three independent experiments in (a-g). (Data are presented as mean ± SD, n = 3 independent samples in (a-g), **p < 0.01, ***p < 0.001, ****p < 0.0001 using one-way ANOVA with Dunnett’s post hoc test).
(§3) Source data are provided as a Source Data file.

RAW264.7 cells = assay: in vitro; conditions: for Cell viability (Fig. S2e): RAW264.7 (48h)
Procedure: as §1, §2, §3

L929 cells = assay: in vitro; conditions: for Cell viability (Fig. S2e): L929 (48h)
Procedure: as §1, §2, §3

THP1 cells = assay: Immunoblotting of phosphorylated IRF3/TBK1 and nuclear IRF3; assay type: cell-based, human
Procedure: Total cell lysates were prepared in RIPA lysis buffer (Beyotime Biotechnology) supplemented with 1 mM PMSF and 1× protease inhibitor cocktail (Yeasen), and nuclear protein was extracted by nuclear protein extraction kit (Solarbio) in accordance with the manufacturer’s instructions. The samples were separated by SDS-PAGE and transferred to the PVDF membrane (Millipore). The membranes were incubated with the indicated primary antibodies at 4 °C overnight and then incubated with an HRP-conjugated anti-rabbit IgG antibody (Cell Signaling, Cat# 7074, 1:5000) or anti-mouse IgG antibody (Cell Signaling, Cat# 7076, 1:5000) at room temperature for 1 h. The signal was visualized by using the NcmECL Ultra kit (New Cell & Molecular Biotech) and then was exposed by using MiniChemi (SageCreation).

[1] = system: HSV-1-infected THP1 cells; assay: qPCR of IFNB1/CXCL10/IL6 mRNA in THP1 cells stimulated by HSV-1 infection; assay type: cell-based, human

SMILES: CC(C)C[C@@H]1NC(=O)[C@H](CCCNC(=N)N)NC(=O)[C@H](C(C)C)NC(=O)[C@@H]2CCCN2C(=O)[C@@H](Cc2ccccc2)NC(=O)[C@H](CC(C)C)NC(=O)[C@H](CCCNC(=N)N)NC(=O)[C@H](C(C)C)NC(=O)[C@H](C)NC(=O)[C@@H](Cc2ccccc2)NC1=O [XQ2, Cyclo (LfAVRLfPVR)] (cyclo(L[dF]AVRL[dF]PVR))
- viability at 48 h, 0.23 µM (in vitro; L929 cells, L929 (48h), XQ2 0.23 μM): 108%
- viability at 48 h, 0.47 µM (in vitro; L929 cells, L929 (48h), XQ2 0.47 μM): 90.1%
- viability at 48 h, 0.94 µM (in vitro; L929 cells, L929 (48h), XQ2 0.94 μM): 83.6%
- viability at 48 h, 1.88 µM (in vitro; L929 cells, L929 (48h), XQ2 1.88 μM): 85.4%
- viability at 48 h, 3.75 µM (in vitro; L929 cells, L929 (48h), XQ2 3.75 μM): 90%
- viability at 48 h, 7.5 µM (in vitro; L929 cells, L929 (48h), XQ2 7.5 μM): 93.1%
- viability at 48 h, 15 µM (in vitro; L929 cells, L929 (48h), XQ2 15 μM): 86.3%
- viability at 48 h, 0.16 µM (in vitro; RAW264.7 cells, RAW264.7 (48h), XQ2 0.16 μM): 100%
- viability at 48 h, 0.31 µM (in vitro; RAW264.7 cells, RAW264.7 (48h), XQ2 0.31 μM): 102%
- viability at 48 h, 0.63 µM (in vitro; RAW264.7 cells, RAW264.7 (48h), XQ2 0.63 μM): 104%
- viability at 48 h, 1.25 µM (in vitro; RAW264.7 cells, RAW264.7 (48h), XQ2 1.25 μM): 104%
- viability at 48 h, 2.5 µM (in vitro; RAW264.7 cells, RAW264.7 (48h), XQ2 2.5 μM): 104%
- viability at 48 h, 5 µM (in vitro; RAW264.7 cells, RAW264.7 (48h), XQ2 5 μM): 102%
- viability at 48 h, 10 µM (in vitro; RAW264.7 cells, RAW264.7 (48h), XQ2 10 μM): 103%
- Cell viability (Fig. S2e) (RAW264.7 cells; XQ2 0.16 μM): 99.8864 and 99.6917
- Cell viability (Fig. S2e) (RAW264.7 cells; XQ2 0.31 μM): 112.786 and 105.825
- Cell viability (Fig. S2e) (RAW264.7 cells; XQ2 0.63 μM): 111.812 and 107.48
- Cell viability (Fig. S2e) (RAW264.7 cells; XQ2 1.25 μM): 113.808 and 104.608
- Cell viability (Fig. S2e) (RAW264.7 cells; XQ2 2.5 μM): 105.825 and 105.241
- Cell viability (Fig. S2e) (RAW264.7 cells; XQ2 5 μM): 107.821 and 104.219
- Cell viability (Fig. S2e) (RAW264.7 cells; XQ2 10 μM): 108.843 and 106.117
- cytotoxicity (RAW264.7 cells; RAW264.7, 48h): no cytotoxicity
- Cell viability (Fig. S2e) (L929 cells; XQ2 0.23 μM): 110.662 and 106.618
- Cell viability (Fig. S2e) (L929 cells; XQ2 0.47 μM): 92.2794 and 86.3971
- Cell viability (Fig. S2e) (L929 cells; XQ2 0.94 μM): 87.1324 and 89.2157
- Cell viability (Fig. S2e) (L929 cells; XQ2 1.88 μM): 84.4363 and 91.299
- Cell viability (Fig. S2e) (L929 cells; XQ2 3.75 μM): 94.6078 and 92.0343
- Cell viability (Fig. S2e) (L929 cells; XQ2 7.5 μM): 92.2794 and 92.1569
- Cell viability (Fig. S2e) (L929 cells; XQ2 15 μM): 85.049 and 94.6078
- cytotoxicity (L929 cells; L929, 48h): no cytotoxicity
- nuclear translocation of IRF-3, fractionation immunoblot (THP1 cells; ISD or HSV-1, 10 μM): substantially suppressed the nuclear translocation of IRF-3 induced by ISD and HSV-1
- phosphorylation of TBK-1 and IRF-3 (THP1 cells; ISD/dsDNA 6 h): markedly decreased phosphorylation of TBK-1 and IRF-3 induced by ISD
- CXCL10 mRNA (Fig. S2b) ([1]; HSV-1, XQ2 0.31 μM): 13697.8 and 18057.7 and 19972.6
- IFNB1 mRNA (Fig. S2b) ([1]; HSV-1, XQ2 0.31 μM): 103.029 and 97.656 and 104.314
- IL6 mRNA (Fig. S2b) ([1]; HSV-1, XQ2 0.31 μM): 94.9854 and 106.129 and 109.338
- CXCL10 mRNA (Fig. S2b) ([1]; HSV-1, XQ2 0.63 μM): 14561.5 and 17791.3 and 14971.8
- IFNB1 mRNA (Fig. S2b) ([1]; HSV-1, XQ2 0.63 μM): 91.2373 and 106.205 and 112.809
- IL6 mRNA (Fig. S2b) ([1]; HSV-1, XQ2 0.63 μM): 98.3879 and 100.916 and 99.3832
- CXCL10 mRNA (Fig. S2b) ([1]; HSV-1, XQ2 1.25 μM): 13878.7 and 14634.4 and 14561.7
- IFNB1 mRNA (Fig. S2b) ([1]; HSV-1, XQ2 1.25 μM): 97.5861 and 86.027 and 97.3512
- IL6 mRNA (Fig. S2b) ([1]; HSV-1, XQ2 1.25 μM): 83.7674 and 88.7511 and 90.6215
- CXCL10 mRNA (Fig. S2b) ([1]; HSV-1, XQ2 2.5 μM): 11116.4 and 12643.3 and 12467.1
- IFNB1 mRNA (Fig. S2b) ([1]; HSV-1, XQ2 2.5 μM): 73.1655 and 85.1476 and 97.1694
- IL6 mRNA (Fig. S2b) ([1]; HSV-1, XQ2 2.5 μM): 59.5539 and 58.6936 and 59.7795
- CXCL10 mRNA (Fig. S2b) ([1]; HSV-1, XQ2 5 μM): 4443.66 and 5989.75 and 4916.38
- IFNB1 mRNA (Fig. S2b) ([1]; HSV-1, XQ2 5 μM): 58.3528 and 60.5599 and 78.4822
- IL6 mRNA (Fig. S2b) ([1]; HSV-1, XQ2 5 μM): 37.2474 and 41.0154 and 36.4161
- CXCL10 mRNA (Fig. S2b) ([1]; HSV-1, XQ2 10 μM): 610.463 and 931.698 and 780.881
- IFNB1 mRNA (Fig. S2b) ([1]; HSV-1, XQ2 10 μM): 20.0242 and 25.5972 and 33.1577
- CXCL10 mRNA (Fig. S2b) ([1]; Mock, XQ2 0.31 μM): 0.6255 and 0.7855 and 0.8542
- IFNB1 mRNA (Fig. S2b) ([1]; Mock, XQ2 0.31 μM): 0.7527 and 0.6452 and 0.8722
- IL6 mRNA (Fig. S2b) ([1]; Mock, XQ2 0.31 μM): 0.9875 and 1.125 and 1.458
- CXCL10 mRNA (Fig. S2b) ([1]; Mock, XQ2 0.63 μM): 0.4588 and 0.432 and 0.4044
- IFNB1 mRNA (Fig. S2b) ([1]; Mock, XQ2 0.63 μM): 0.713 and 0.5919 and 0.8053
- IL6 mRNA (Fig. S2b) ([1]; Mock, XQ2 0.63 μM): 1.48 and 1.078 and 1.222
- CXCL10 mRNA (Fig. S2b) ([1]; Mock, XQ2 1.25 μM): 1.308 and 1.359 and 1.615
- IFNB1 mRNA (Fig. S2b) ([1]; Mock, XQ2 1.25 μM): 0.9026 and 1.107 and 1.382
- CXCL10 mRNA (Fig. S2b) ([1]; Mock, XQ2 2.5 μM): 3.137 and 2.991 and 2.833
- IFNB1 mRNA (Fig. S2b) ([1]; Mock, XQ2 2.5 μM): 1.426 and 1.751 and 1.799
- IL6 mRNA (Fig. S2b) ([1]; Mock, XQ2 2.5 μM): 2.387 and 2.459 and 3.439
- CXCL10 mRNA (Fig. S2b) ([1]; Mock, XQ2 5 μM): 1.923 and 2.134 and 2.246
- IFNB1 mRNA (Fig. S2b) ([1]; Mock, XQ2 5 μM): 1.17 and 1.093 and 1.0788
- CXCL10 mRNA (Fig. S2b) ([1]; Mock, XQ2 10 μM): 4.593 and 4.941 and 4.3739
- IFNB1 mRNA (Fig. S2b) ([1]; Mock, XQ2 10 μM): 1.523 and 2.285 and 2.284
- IL6 mRNA (Fig. S2b) ([1]; Mock, XQ2 10 μM): 4.656 and 4.111 and 3.925
- HSV-1-induced IFNB1, CXCL10, IL6 expression ([1]; THP1): inhibited the expression level of IFNΒ1 and CXCL10, as well as IL6
- IFNB1 mRNA, qPCR, Fig. 2b ([1]; THP1, HSV-1, 10 μM): 17.701 and 20.2819 and 20.0106
